From US20250145637A1, “SULFONAMIDE DERIVATIVE, PREPARATION METHOD THEREFOR AND MEDICAL USE THEREOF” (Jiangsu Hengrui Pharmaceuticals Co. Ltd., priority 2021, published 2025)

System: H3K23 acetylation in U-2 OS cells
Experiment: U2OS cell H3K23 acetylation IF assay (immunofluorescence)
Assay type: cell-based
Settings: Homo sapiens; for IC50: 24 h incubation, read-out: H3K23 ac/IC50; for Emax: inhibition of H3K23 acetylation, 24 h, read-out: Maximum inhibition rate/Imax %
Procedure: Test Example 3: U2OS Cell H3K23 Acetylation IF Assay (Immunofluorescence)
I. Reagents and Instruments
• 1. U-2 OS (ATCC HTB-96) • 2. Recombinant anti-histone H3 (acetyl K23) antibody (Abcam, ab177275) • 3. Goat anti-rabbit IgG (H+L), Superclonal™ recombinant secondary antibody, Alexa Fluor 488 (Thermofisher, A27034) • 4. Hoechst 33342 (Sigma-Aldrich, B2261-25MG) • 5. Assay plate, 96-well, black with clear bottom (Corning, 3603) • 6. Bovine serum albumin (BSA) (Sangon Biotech, A500023-0100) • 7. Methanol (GENERAL-REAGENT, G75851D) • 8. Tween-20 (Sangon, A100777-0500) • 9. Triton X-100 (Solarbio, T8200) • 10. PBS (Shanghai BasalMedia Technologies Co., Ltd., B320KJ) • 11. 20×PBS buffer (Sangon Biotech, B548117-0500) • 12. McCoy's 5A medium (Gibco, 16600082) • 13. 0.25% trypsin-EDTA (1×) (Gibco, 25200-072) • 14. Pen strep (Gibco, 15140-122) • 15. DPBS (1×) (Gibco, 14190-144) • 16. FBS (Gibco, 10091148) • 17. Automatic cell counter (Countstar, IC1000) • 18. Thermostatic incubator (Thermo, 1160) • 19. ImageXpress® Micro Confocal (Molecular Device)
a. Blocking buffer: PBS (Shanghai BasalMedia)+BSA (final concentration of 1%)+Triton X-100 (final concentration of 0.5%).
b. Wash buffer: PBS (20×PBS was diluted to 1×PBS)+Tween-20 (final concentration of 0.1%).
c. Primary antibody solution: Recombinant anti-histone H3 (acetyl K23) antibody was diluted in blocking buffer at a ratio of 1:1000.
d. Secondary antibody solutions: Goat anti-rabbit IgG (H+L), Superclonal™ recombinant secondary antibody, Alexa Fluor 488 was diluted in blocking buffer at a ratio of 1:1000, and Hoechst 33342 was diluted in blocking buffer at a ratio of 1:5000.
e. Compounds: initial concentration of 100 μM, 3-fold dilution, 9 gradient concentrations. All compound concentrations were diluted 500-fold with McCoy's 5A medium for later use.
2. Experimental Procedure
2.1. Cell Treatment (Day One)
a. The state of U-2 OS cells was observed under a microscope to make sure that the cell confluence was about 90%.
b. The cell supernatant was discarded. The cells were rinsed with DPBS once, and the DPBS was removed. The cells were digested with a proper amount of trypsin and left to stand at room temperature or 37° C. for 5 min.
c. The digestion was stopped with an equal volume of medium containing 10% FBS, and the cell suspension was collected and centrifuged at 300 g for 3 min. The cells were suspended in a proper amount of fresh medium.
d. The resulting cell suspension was collected and cell counting was performed.
e. The cell suspension was diluted and plated at 9000 cells/50 μL/well.
f. The wells on the periphery were blocked with 100 μL of PBS.
g. The cell culture plates were incubated overnight in a 37° C., 5% carbon dioxide incubator.
2.2. Compound Addition (Day Two)
a. 50 μL of diluted compound was added to the cell supernatant (50 μL/well) in each cell plate.
b. After the addition, the cell plates were incubated in a 37° C., 5% carbon dioxide incubator for 24 h.
2.3. Immunofluorescence Staining and Measurement (Day Three to Day Four)
a. After the 24-hour incubation, the cell plates were removed from the incubator. The medium was discarded, and plates were fixed with pre-cooled methanol at room temperature for 10 min.
b. The fixation buffer was discarded, and the plates were quickly washed with wash buffer 3 times and then slowly washed 3 times (5 min/wash).
c. The wash buffer was discarded, and blocking buffer was added. The plates were incubated at room temperature for 60 min.
d. The blocking buffer was discarded, and the prepared primary antibody solution was added. The plates were incubated overnight at 4° C.
e. The primary antibody solution was discarded, and the prepared secondary antibody solution was added. The plates were incubated at room temperature for 60 min.
f. The secondary antibody solution was discarded, and the plates were quickly washed with wash buffer 3 times and then slowly washed 5 times (5 min/wash).
g. The plates were tested on ImageXpress® Micro Confocal.
h. […]

Row | Compound | IC50 [nM] | Emax [%]
1 | CCOc1cc(C)ccc1S(=O)(=O)Nc1noc2cc(Cn3cccn3)c3c(c12)OCCC3 [Compound 7, N-(5-((1H-pyrazol-1-yl)methyl)-3,4-dihydro-2H-chromeno[8,7-d]isoxazol-9-yl)-2-ethoxy-4-methylbenzenesulfonamide] | 1.4 | 97.4
2 | Cc1ccc(S(=O)(=O)Nc2noc3cc(Cn4cccn4)c4c(c23)OCCC4)c(OCC(F)(F)F)c1 [Compound 8, N-(5-((1H-pyrazol-1-yl)methyl)-3,4-dihydro-2H-chromeno[8,7-d]isoxazol-9-yl)-4-methyl-2-(2,2,2-trifluoroethoxy)benzenesulfonamide] | 2.8 | 99.4
3 | COc1cccc(OC(F)(F)F)c1S(=O)(=O)Nc1noc2cc(Cn3cccn3)c3c(c12)OCCC3 [Compound 10, N-(5-((1H-pyrazol-1-yl)methyl)-3,4-dihydro-2H-chromeno[8,7-d]isoxazol-9-yl)-2-methoxy-6-(trifluoromethoxy)benzenesulfonamide] | 1.2 | 106
4 | COc1ccccc1S(=O)(=O)Nc1noc2cc(Cn3cccn3)c3c(c12)OCC3 [Compound 20, N-(4-((1H-pyrazol-1-yl)methyl)-2,3-dihydrobenzofuro[7,6-d]isoxazol-8-yl)-2-methoxybenzenesulfonamide] | 4.6 | 99.4

Stronger by IC50, values ahead:

Row | IC50 [nM] | Compound | Emax [%]
5 | 1.1 | COc1cccc(OC)c1S(=O)(=O)Nc1noc2cc(Cn3cccn3)c3c(c12)OCC3 [Compound 1, N-(4-((1H-pyrazol-1-yl)methyl)-2,3-dihydrobenzofuro[7,6-d]isoxazol-8-yl)-2,6-dimethoxybenzenesulfonamide] | 102
6 | 0.4 | COc1cccc(OC)c1S(=O)(=O)Nc1noc2cc(Cn3cccn3)c3c(c12)OCCC3 [Compound 2, N-(5-((1H-pyrazol-1-yl)methyl)-3,4-dihydro-2H-chromeno[8,7-d]isoxazol-9-yl)-2,6-dimethoxybenzenesulfonamide] | 98.5
7 | 0.9 | COc1ccccc1S(=O)(=O)Nc1noc2cc(Cn3cccn3)c3c(c12)OCCC3 [Compound 3, N-(5-((1H-pyrazol-1-yl)methyl)-3,4-dihydro-2H-chromeno[8,7-d]isoxazol-9-yl)-2-methoxybenzenesulfonamide] | 106
8 | 0.6 | COc1cccc(OC)c1S(=O)(=O)Nc1noc2cc(Cn3cccn3)c3c(c12)OC(F)(F)O3 [Compound 5, N-(4-((1H-pyrazol-1-yl)methyl)-2,2-difluoro-[1,3]dioxolo[4′,5′:5,6]benzo[1,2-d]isoxazol-8-yl)-2,6-dimethoxybenzenesulfonamide] | 104
9 | 0.75 | COc1ccc(F)cc1S(=O)(=O)Nc1noc2cc(Cn3cccn3)c3c(c12)OCCC3 [Compound 9, N-(5-((1H-pyrazol-1-yl)methyl)-3,4-dihydro-2H-chromeno[8,7-d]isoxazol-9-yl)-5-fluoro-2-methoxybenzenesulfonamide] | 99.5
